The values that follow come from US20240003908A1, “POLYOL BIOMARKERS FOR CONGENITAL DISORDERS OF GLYCOSYLATION” (Mayo Foundation for Medical Education and Research, priority 2020, published 2024).

One data set relates to urine mannitol. The data set is described as follows: Urine mannitol (GC/MS) in a PMM2-CDG pediatric patient on oral epalrestat therapy. It is filed as in vivo, human. The note with it: for urine mannitol level: before therapy 648.6, controls <20. Here is the method:
Clinical studies: Epalrestat was used as an N of 1 study for a single pediatric patient with PMM2-CDG. An open label, single patient compassionate use study designed to assess the safety and tolerability of oral epalrestat therapy in a child with PMM2-CDG. The patient received […]. Concomitant medications, vital signs, blood draw for serum chemistry and hematology, and blood levels of epalrestat were collected at each study visit during a 6 month period to evaluate the safety and tolerability of oral epalrestat therapy in a child with PMM2-CDG. The Nijmegen Pediatric CDG Rating Scale (NPCRS) assessment was administered at the start of the study and at 6 months. Urine polyols were collected at the start, at 4 months, and at 6 months of therapy, and were measured as described elsewhere (Jansen et al., Clin Chim Acta 1986, 157:277-294). Briefly, 200 μl urine specimens were spiked with a mixture of labeled internal standards, allowed to equilibrate, and evaporated. […] Specimens were analyzed by GC/MS, selected ion monitoring using ammonia chemical ionization and a stable isotope dilution method. In general, the following protocol was used: • Creatinine (CR) values (mg/dL) were determined for all samples. • Multiplication factors were calculated for each patient sample. • 100 μL of Polyol QC Mix for the QC Standard and 100 μL water were pipetted into a labeled 16×100 screw-cap glass tube. • 200 μL each of low control and high control were pipetted into corresponding labeled 16×100 mm screw-cap glass tubes. • 200 μL of each patient sample was pipetted into a corresponding labeled 16×100 mm screw cap glass tube. […]
Urine sorbitol and mannitol levels also were quantified using similar processing of samples and GC/MS settings, monitoring ions specific for sorbitol and mannitol for peak area ratio calculations.
Patient assessment: Prior to the first dose of epalrestat and at 1, 2, 3, 6, 8, 9, 12 months during treatment, concomitant medications and vital signs were recorded and the patient was evaluated using the NPCRS. […]

A further data set relates to ICAM-1. The data set is described as follows: ICAM-1 protein (immunoblot) and mRNA (RT-qPCR) in PMM-deficient fibroblasts. It is filed as cell-based, human. The conditions noted are these: 10 μM epalrestat. An excerpt: (§1) Effect of epalrestat on glycosylation biomarkers in vitro: Immunoblotting and RT-qPCR were used to measure Intercellular Adhesion Molecule 1 (ICAM-1) and Lysosomal Associated Membrane Protein 2 (LAMP-2) protein and mRNA expression levels, respectively, as cellular markers of N-glycosylation (Ferrer et al., Mol Genet Metab 131:424-429, 2020; He et al., J Biol Chem 287:18210-18217, 2012; Eskelinen, Mol Aspects Med 27:495-502, 2006; and Radenkovic et al., Mol Genet Metab 132:27-37, 2021) in 10 PMM-deficient fibroblast lines (P1-P6, P8, P17, P19, and P24) and in control fibroblasts, treated with 10 μM epalrestat (the optimal dose based on PMM enzyme activity as described above).
(In general: A western blot detects proteins with antibodies after separation by electrophoresis.)

For the next data set, the system named is LAMP-2. In words: LAMP-2 protein (immunoblot) and mRNA (RT-qPCR) in PMM-deficient fibroblasts. It is filed as cell-based, human. The note with it: 10 μM epalrestat.
From the text: as §1

The next data set relates to child with PMM2-CDG. The data set is described as follows: Single patient (P1) study: safety and tolerability of oral epalrestat. The conditions noted are these: for liver elastography Interquartile Range to Median ratio: normal below 25%. It is filed as in vivo, human. The method, then: Study design: An open label, single patient (P1) compassionate use study was designed to assess the safety and tolerability of oral epalrestat therapy in a child with PMM2-CDG.
Patient assessment: Prior to the first dose of epalrestat and at 1, 2, 3, 6, 8, 9, 12 months during treatment, concomitant medications and vital signs were recorded and the patient was evaluated using the NPCRS. In addition, blood was drawn for serum chemistry, hematology, and plasma levels of epalrestat. Urine was collected for polyol measurement at baseline and twice over the course of 12 months of therapy.
Drug administration: Epalrestat was administered orally, 3 times per day (TID) before meals in a divided dose (0.8 mg/kg/day; 5 mg TID) of epalrestat (Ono Pharmaceuticals, Osaka, Japan) starting on Day 1 of the study.
Safety and efficacy: Safety measures included vital signs, change in CBC, liver function (INR, bilirubin, transaminases, and albumin) in blood, change in liver elastography, and following the pharmacokinetic profile of epalrestat. The efficacy of epalrestat was studied by clinical follow up (physical exam, NPCRS, ICARS), standard laboratory tests, and transferrin glycoform analysis by mass spectrometry.

The mark [1] stands for this setting: patient P1, throughout the study.

In the case of `CC(/C=C1\SC(=S)N(CC(=O)O)C1=O)=C\c1ccccc1` [epalrestat], the urine mannitol level in the data set with urine mannitol (6 months of epalrestat therapy) worked out at 25.09 mmol/mol creatinine; in the data set on urine mannitol (after 3 months of epalrestat therapy), 37.32 mmol/mol creatinine. The urinary mannitol level with urine mannitol (at 4 months of epalrestat treatment, pretreatment 648.6, control less than 10) is given as 37.32 mmol/mol creatinine. Besides, in the data set on ICAM-1, the “ICAM-1 mRNA expression” value is listed as “no effect”. The “LAMP-2 mRNA expression” value with LAMP-2 is reported as “no effect”. Moreover, the “liver elastography Interquartile Range to Median ratio” value with child with PMM2-CDG (after 1 month of therapy, prior to therapy 14%) was 12%; in the data set on child with PMM2-CDG (at 6 months), 20%; with child with PMM2-CDG (at 12 months), 8%. In addition, in the data set on child with PMM2-CDG (patient P1), the liver elastography result was “remained normal”. Also, in the data set with child with PMM2-CDG (patient P1, 0.27 mg/kg three times a day, 12 months), the adverse events entry is “No adverse events”. The “CBC with differential, transaminases, bilirubin, and albumin” value in the data set with child with PMM2-CDG (setting [1]) was “remained normal”. Besides, in the data set with child with PMM2-CDG (setting [1]), the “antithrombin III levels and International normalized ratio (INR)” value was “remained at normal levels”. The vital signs result in the data set on child with PMM2-CDG (setting [1]) is given as “remained normal”.
